Measured values published in ChEMBL document CHEMBL1201862, “PubChem BioAssay data set” (2004).
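A five-concentration, 48-hour dose response in 96-well plates underlies each endpoint, interpolated linearly between surrounding concentrations. GI50 marks 50% less growth.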 The source made the active and inactive calls. Cut-off read from the data, not from the text of the source: active = GI50 up to about 1.1 µM and inactive = higher.

Columns and labels:
Assay in all cases: growth of human tumour cells (NCI), 48 h
HOP-92 = tested on: HOP-92
DU-145 = tested on: DU-145
A498 = tested on: A498
NCI-H460 = tested on: NCI-H460
K562 = tested on: K562
SF-539 = tested on: SF-539
SNB-75 = tested on: SNB-75
OVCAR-3 = tested on: OVCAR-3
UACC-257 = tested on: UACC-257
SK-MEL-5 = tested on: SK-MEL-5
UO-31 = tested on: UO-31
HCT-15 = tested on: HCT-15
HCT-116 = tested on: HCT-116
SF-295 = tested on: SF-295
RPMI-8226 = tested on: RPMI-8226
SK-MEL-2 = tested on: SK-MEL-2
OVCAR-4 = tested on: OVCAR-4
NCI/ADR-RES = tested on: NCI/ADR-RES
RXF 393 = tested on: RXF 393
MCF7 = tested on: MCF7
SF-268 = tested on: SF-268
IGROV-1 = tested on: IGROV-1
SN12C = tested on: SN12C
Hs-578T = tested on: Hs-578T
PC-3 = tested on: PC-3
OVCAR-8 = tested on: OVCAR-8
M14 = tested on: M14
MDA-MB-231 = tested on: MDA-MB-231
EKVX = tested on: EKVX
HCC 2998 = tested on: HCC 2998
NCI-H226 = tested on: NCI-H226
CCRF-CEM = tested on: CCRF-CEM
Malme-3M = tested on: Malme-3M
LOX IMVI = tested on: LOX IMVI
MOLT-4 = tested on: MOLT-4
786-0 = tested on: 786-0
CAKI-1 = tested on: CAKI-1
NCI-H23 = tested on: NCI-H23
MDA-N = tested on: MDA-N
SNB-19 = tested on: SNB-19
A549 = tested on: A549
SR = tested on: SR
BT-549 = tested on: BT-549
UACC-62 = tested on: UACC-62
TK-10 = tested on: TK-10
KM12 = tested on: KM12
SW-620 = tested on: SW-620
SK-MEL-28 = tested on: SK-MEL-28
SK-OV-3 = tested on: SK-OV-3
HT-29 = tested on: HT-29
ACHN = tested on: ACHN
COLO 205 = tested on: COLO 205
HL-60 = tested on: HL-60
MDA-MB-435 = tested on: MDA-MB-435
OVCAR-5 = tested on: OVCAR-5
T47D = tested on: T47D
U-251 = tested on: U-251
NCI-H522 = tested on: NCI-H522
HOP-62 = tested on: HOP-62

Measured: GI50

c1ccc2c(c1)-c1ccccc1C2N1CC2CCC(CC2)C1
inactive: HOP-92 17.5 µM | DU-145 29.9 µM | A498 20.3 µM | NCI-H460 19.8 µM | K562 17.3 µM | SF-539 24.1 µM | SNB-75 27 µM | OVCAR-3 20.4 µM | UACC-257 20.6 µM | SK-MEL-5 17.1 µM | UO-31 28.8 µM | HCT-116 20.7 µM | SF-295 19.3 µM | RPMI-8226 20.4 µM | SK-MEL-2 16 µM | OVCAR-4 31.9 µM | NCI/ADR-RES 15.5 µM | RXF 393 17.8 µM | MCF7 17.5 µM | SF-268 15.5 µM | IGROV-1 20.7 µM | SN12C 23.9 µM | Hs-578T 3.37 µM | PC-3 27.6 µM | OVCAR-8 30 µM | M14 26.7 µM | MDA-MB-231 18.8 µM | EKVX 21.7 µM | HCC 2998 16.9 µM | NCI-H226 19.5 µM | CCRF-CEM 19.5 µM | Malme-3M 10.1 µM | LOX IMVI 18.7 µM | MOLT-4 12.3 µM | 786-0 35.1 µM | CAKI-1 32 µM | NCI-H23 17.3 µM | MDA-N 31.9 µM | SNB-19 29.4 µM | A549 28.8 µM | SR 20.6 µM | BT-549 16.8 µM | UACC-62 19.9 µM | TK-10 37.4 µM | KM12 19 µM | SW-620 22.1 µM | SK-MEL-28 33.3 µM | SK-OV-3 44.1 µM | HT-29 16.8 µM | ACHN 23 µM | COLO 205 20.5 µM | HL-60 2.92 µM | MDA-MB-435 25.1 µM | OVCAR-5 18 µM | T47D 20.7 µM | U-251 17.1 µM | NCI-H522 10.5 µM | HOP-62 25.2 µM
16.8 µM: HCT-15

O=C(OC1C#CCSCC#C/C=C\1)c1ccc2c(c1)C(=O)c1ccccc1C2=O (stereo not given)
> 100 µM: HCT-15
inactive: HOP-92 2.79 µM | DU-145 > 100 µM | A498 33.3 µM | NCI-H460 > 100 µM | K562 > 100 µM | SF-539 15.5 µM | SNB-75 26.4 µM | OVCAR-3 > 100 µM | UACC-257 > 100 µM | SK-MEL-5 87.1 µM | UO-31 42.7 µM | HCT-116 36.5 µM | SF-295 28 µM | RPMI-8226 > 100 µM | SK-MEL-2 35.8 µM | OVCAR-4 > 100 µM | NCI/ADR-RES 78.9 µM | RXF 393 18.4 µM | MCF7 41.2 µM | SF-268 21.6 µM | IGROV-1 34.8 µM | SN12C > 100 µM | Hs-578T 24.2 µM | PC-3 > 100 µM | OVCAR-8 68.5 µM | M14 65.2 µM | MDA-MB-231 26.2 µM | EKVX 64.7 µM | HCC 2998 > 100 µM | NCI-H226 48.8 µM | CCRF-CEM > 100 µM | Malme-3M > 100 µM | LOX IMVI > 100 µM | MOLT-4 81.7 µM | CAKI-1 37.5 µM | NCI-H23 40.7 µM | MDA-N > 100 µM | SNB-19 23.6 µM | A549 > 100 µM | SR 25.5 µM | BT-549 22.6 µM | UACC-62 11.9 µM | TK-10 27.9 µM | KM12 > 100 µM | SW-620 > 100 µM | SK-MEL-28 > 100 µM | SK-OV-3 18.1 µM | HT-29 > 100 µM | ACHN 55 µM | COLO 205 82.2 µM | HL-60 > 100 µM | MDA-MB-435 > 100 µM | OVCAR-5 > 100 µM | T47D > 100 µM | U-251 16.2 µM | NCI-H522 23.8 µM | HOP-62 16.5 µM

CCC(=O)/C=C/c1ccccc1
inactive: HOP-92 > 100 µM | DU-145 > 100 µM | A498 48.9 µM | NCI-H460 70.3 µM | K562 25.6 µM | SF-539 53 µM | SNB-75 > 100 µM | OVCAR-3 67.6 µM | UACC-257 72.6 µM | SK-MEL-5 33 µM | UO-31 76.6 µM | HCT-116 31.3 µM | SF-295 73.5 µM | RPMI-8226 54.3 µM | SK-MEL-2 > 100 µM | OVCAR-4 95.9 µM | NCI/ADR-RES 47.6 µM | RXF 393 73.3 µM | MCF7 31.7 µM | SF-268 94 µM | IGROV-1 76.9 µM | SN12C 43.2 µM | Hs-578T 21.8 µM | PC-3 > 100 µM | OVCAR-8 51.3 µM | M14 52.8 µM | MDA-MB-231 > 100 µM | EKVX > 100 µM | HCC 2998 63.1 µM | NCI-H226 > 100 µM | CCRF-CEM 37.2 µM | Malme-3M > 100 µM | LOX IMVI 22.8 µM | MOLT-4 26 µM | 786-0 46 µM | CAKI-1 56.1 µM | NCI-H23 47.4 µM | MDA-N 40.6 µM | SNB-19 44 µM | A549 > 100 µM | SR 42.8 µM | BT-549 32.7 µM | UACC-62 37 µM | TK-10 > 100 µM | KM12 14.6 µM | SW-620 32.5 µM | SK-MEL-28 54 µM | SK-OV-3 31.3 µM | HT-29 43.7 µM | ACHN 79.1 µM | COLO 205 > 100 µM | HL-60 33.4 µM | MDA-MB-435 33.8 µM | OVCAR-5 > 100 µM | T47D > 100 µM | U-251 37.9 µM | NCI-H522 > 100 µM | HOP-62 > 100 µM
35.9 µM: HCT-15

CC(C)C[S+]1C2=C(CC(C)(C)CC2=O)[N-]c2ccccc21 (stereo not given)
> 100 µM: HCT-15
inactive: HOP-92 > 100 µM | DU-145 > 100 µM | A498 > 100 µM | NCI-H460 > 100 µM | K562 71.9 µM | SF-539 > 100 µM | SNB-75 > 100 µM | OVCAR-3 > 100 µM | UACC-257 > 100 µM | SK-MEL-5 > 100 µM | UO-31 > 100 µM | HCT-116 > 100 µM | SF-295 > 100 µM | RPMI-8226 > 100 µM | SK-MEL-2 > 100 µM | OVCAR-4 > 100 µM | NCI/ADR-RES > 100 µM | RXF 393 > 100 µM | MCF7 > 100 µM | SF-268 > 100 µM | IGROV-1 > 100 µM | SN12C > 100 µM | Hs-578T > 100 µM | PC-3 > 100 µM | OVCAR-8 > 100 µM | M14 > 100 µM | MDA-MB-231 > 100 µM | EKVX > 100 µM | HCC 2998 > 100 µM | NCI-H226 > 100 µM | CCRF-CEM > 100 µM | Malme-3M > 100 µM | LOX IMVI > 100 µM | MOLT-4 67.8 µM | 786-0 > 100 µM | CAKI-1 > 100 µM | NCI-H23 > 100 µM | MDA-N > 100 µM | SNB-19 > 100 µM | A549 > 100 µM | SR 11.3 µM | BT-549 > 100 µM | UACC-62 > 100 µM | TK-10 > 100 µM | KM12 > 100 µM | SW-620 > 100 µM | SK-MEL-28 > 100 µM | SK-OV-3 > 100 µM | HT-29 > 100 µM | ACHN > 100 µM | COLO 205 > 100 µM | HL-60 > 100 µM | MDA-MB-435 > 100 µM | OVCAR-5 > 100 µM | T47D > 100 µM | U-251 > 100 µM | NCI-H522 > 100 µM | HOP-62 > 100 µM
